{"source": "paper PMC11212004", "about": "(Pharmacology Research & Perspectives, 2024)", "origin": "cited, not measured here", "key": {"[1]": {"details": "collagen‐induced arthritis (CIA) model"}, "[2]": {"system": "Orai calcium channel"}, "[3]": {"system": "Jurkat cells"}, "[4]": {"system": "osteoclasts"}}}
{"smiles": "CCC(=O)Nc1ccc(Cl)c(Cl)c1", "note": "[DCPA, 3,4‐dichloropropionanilide]", "values": [{"measurement": "bone erosion and cartilage damage", "setting": "[1]", "value": "reduces bone erosion and cartilage damage"}, {"measurement": "Orai calcium channel antagonism", "setting": "[2]", "value": "functions as an Orai calcium channel antagonist"}, {"measurement": "IL‐2 secretion", "setting": "[3]", "value": "decreased NFAT‐dependent IL‐2 secretion"}, {"measurement": "mineral resorption by osteoclasts in vitro", "setting": "[4]", "value": "inhibits mineral resorption"}]}
